In patent US5240925A (priority 1991, dated 1993):

Columns and labels:
Experiment in all cases: whole plant or invertebrate
Assay type in all cases: in vivo
[1] = tested on: Piricularia oryzae; settings: Pyricularia oryzae, 192 h, read-out: percent disease control, RB
[2] = tested on: Phytophthora infestans; settings: in Solanum lycopersicum, 96 h, read-out: percent disease control, TLB
[3] = tested on: Pseudoperonospora cubensis; settings: in Cucumis sativus, 168 h, read-out: percent disease control, CDM
[4] = tested on: Puccinia recondita (f. sp. tritici Races PKB and PLD); settings: 240 h, read-out: percent disease control, WLR
[5] = tested on: Erysiphe graminis (f. sp. tritici); settings: Blumeria graminis, 192 h; read-out: percent disease control, WPM
[6] = tested on: Puccinia graminis (f. sp. tritici Race 15B-2); settings: 240 h, read-out: percent disease control, WSR

With N#CC(CC1CCCO1)(Cn1cncn1)c1ccccc1 (centres unmarked) [Example 1, 1-[2-Cyano-2-phenyl-3-(tetrahydrofuran-2-yl)propyl]-1,2,4-triazole] the pest or weed control at 225 g/ha [1] was 100%, the pest or weed control at 225 g/ha [2] was 5% and the pest or weed control at 225 g/ha [3] was 10%. The pest or weed control at 225 g/ha [4] was 100% and the pest or weed control at 225 g/ha [5] was 100%.
For N#CC(CCN1CCOCC1)(Cn1cncn1)c1ccc(Cl)cc1 (centres unmarked) [Example 2, 1-[2-(4-Chlorophenyl)-2-cyano-4-(4-morpholinyl)butyl]-1,2,4-triazole], the pest or weed control at 300 g/ha [1] was 0%, the pest or weed control at 300 g/ha [2] was 0% and the pest or weed control at 300 g/ha [3] was 0%. For the same molecule, the pest or weed control at 300 g/ha [6] was 0% and the pest or weed control at 300 g/ha [5] was 50%.
Work on CC1CN(CCC(C#N)(Cn2cncn2)c2ccc(Cl)cc2)CC(C)O1 (centres unmarked) [Example 4, 1-[2-(4-Chlorophenyl)-2-cyano-4-(2,6-dimethyl-4-morpholinyl)butyl]-1,2,4-triazole] yielded a pest or weed control at 300 g/ha [1] of 0%, a pest or weed control at 300 g/ha [2] of 0% and a pest or weed control at 300 g/ha [3] of 0%. The pest or weed control at 300 g/ha [6] was 100% and the pest or weed control at 300 g/ha [5] was 0%.
In the case of CC1CN(CCCC(C#N)(Cn2cncn2)c2ccc(Cl)cc2)CC(C)O1 (centres unmarked) [Example 3, 1-[2-(4-Chlorophenyl)-2-cyano-5-(2,6-dimethyl-4-morpholinyl)pentyl]-1,2,4-triazole], the pest or weed control at 300 g/ha [1] is reported as 0%, the pest or weed control at 300 g/ha [2] is reported as 0% and the pest or weed control at 300 g/ha [3] is reported as 0%. For the same molecule, the pest or weed control at 300 g/ha [6] was 50% and the pest or weed control at 300 g/ha [5] was 0%.
Molecule N#CC(Cc1cccnc1)(Cn1cncn1)c1ccc(Cl)cc1 (centres unmarked) [Example 7, 1-[2-(4-Chlorophenyl)-2-cyano-3-(3-pyridyl)propyl]-1,2,4-triazole] has a pest or weed control at 150 g/ha [1] of 0%, a pest or weed control at 150 g/ha [2] of 0% and a pest or weed control at 150 g/ha [4] of 0%. It also gave a pest or weed control at 150 g/ha [5] of 85%.
For N#CC(CCc1ccccn1)(Cn1cncn1)c1ccccc1 (centres unmarked) [Example 15, 1-[2-Cyano-2-phenyl-4-(2-pyridyl)butyl]-1,2,4-triazole], the pest or weed control at 300 g/ha [2] was 85%, the pest or weed control at 300 g/ha [3] was 0% and the pest or weed control at 300 g/ha [4] was 0%. It also gave a pest or weed control at 300 g/ha [5] of 85%.
In the case of CN1CCCC(CC(C#N)(Cn2cncn2)c2ccc(Cl)cc2Cl)C1 (centres unmarked) [Example 11, 1-[2-Cyano-2-(2,4-dichlorophenyl)-3-(1-methylpiperidin-3-yl)propyl]-1,2,4-triazole], the pest or weed control at 300 g/ha [1] is reported as 0%, the pest or weed control at 300 g/ha [2] is reported as 0% and the pest or weed control at 300 g/ha [3] is reported as 50%. For the same molecule, the pest or weed control at 300 g/ha [4] was 25% and the pest or weed control at 300 g/ha [5] was 95%.
For N#CC(Cc1cccs1)(Cn1cncn1)c1ccc(Cl)cc1 (centres unmarked) [Example 13, 1-[2-(4-Chlorophenyl)-2-cyano-3-(2-thienyl)propyl]-1,2,4-triazole], the pest or weed control at 300 g/ha [1] was 0%, the pest or weed control at 150 g/ha [2] was 0% and the pest or weed control at 300 g/ha [3] was 0%. For the same molecule, the pest or weed control at 150 g/ha [6] was 100%, the pest or weed control at 150 g/ha [4] was 0% and the pest or weed control at 150 g/ha [5] was 100%.
Molecule N#CC(Cc1ccco1)(Cn1cncn1)c1ccc(Cl)cc1 (centres unmarked) [Example 12, 1-[2-(4-Chlorophenyl)-2-cyano-3-(2-furyl)propyl]-1,2,4-triazole] has a pest or weed control at 150 g/ha [2] of 80%, a pest or weed control at 150 g/ha [6] of 50% and a pest or weed control at 150 g/ha [4] of 0%. It also gave a pest or weed control at 150 g/ha [5] of 100%.
With CC1CN(CCCCCCCCCCCC(C#N)(Cn2cncn2)c2ccc(Cl)cc2)CC(C)O1 (centres unmarked) [Example 6, 1-[2-(4-Chlorophenyl)-2-cyano-13-(2,6-dimethyl-4-morpholinyl)tridecyl]-1,2,4-triazole] the pest or weed control at 300 g/ha [1] was 0%, the pest or weed control at 300 g/ha [2] was 0% and the pest or weed control at 300 g/ha [3] was 0%. For the same molecule, the pest or weed control at 300 g/ha [6] was 80% and the pest or weed control at 300 g/ha [5] was 0%.
N#CC(CCCN1CCCCC1)(Cn1cncn1)c1ccc(Cl)cc1Cl (centres unmarked) [Example 10, 1-[2-Cyano-2-(2,4-dichlorophenyl)-5-(1-piperidinyl)pentyl]-1,2,4-triazole] gave a pest or weed control at 300 g/ha [1] of 50%, a pest or weed control at 300 g/ha [4] of 25% and a pest or weed control at 300 g/ha [5] of 75%.
N#CC(CCc1cccs1)(Cn1cncn1)c1ccc(Cl)cc1 (centres unmarked) [Example 8, 1-[2-(4-Chlorophenyl)-2-cyano-4-(2-thienyl)butyl]-1,2,4-triazole] gave a pest or weed control at 150 g/ha [1] of 0%, a pest or weed control at 150 g/ha [2] of 80% and a pest or weed control at 150 g/ha [3] of 100%. It also gave a pest or weed control at 150 g/ha [6] of 95%, a pest or weed control at 150 g/ha [4] of 95% and a pest or weed control at 150 g/ha [5] of 95%.
Work on COc1ccccc1C(C#N)(CC1CCCCO1)Cn1cncn1 (centres unmarked) [Example 14, 1-[2-Cyano-2-(2-methoxyphenyl)-3-(tetrahydropyran-2-yl)propyl]-1,2,4-triazole] yielded a pest or weed control at 300 g/ha [1] of 0%, a pest or weed control at 300 g/ha [2] of 0% and a pest or weed control at 300 g/ha [3] of 0%. The pest or weed control at 300 g/ha [4] was 0% and the pest or weed control at 300 g/ha [5] was 99%.
Molecule CC1CN(CCCCC(C#N)(Cn2cncn2)c2ccc(Cl)cc2)CC(C)O1 (centres unmarked) [Example 5, 1-[2-(4-Chlorophenyl)-2-cyano-6-(2,6-dimethyl-4-morpholinyl)hexyl]-1,2,4-triazole] has a pest or weed control at 300 g/ha [1] of 0%, a pest or weed control at 300 g/ha [2] of 0% and a pest or weed control at 300 g/ha [3] of 0%. For the same molecule, the pest or weed control at 300 g/ha [6] was 80% and the pest or weed control at 300 g/ha [5] was 0%.
For COc1ccccc1C(C#N)(Cc1ccccn1)Cn1cncn1 (centres unmarked) [Example 9, 1-[2-Cyano-2-(2-methoxyphenyl)-3-(2-pyridyl)propyl]-1,2,4-triazole], the pest or weed control at 150 g/ha [1] was 0%, the pest or weed control at 150 g/ha [2] was 100% and the pest or weed control at 150 g/ha [4] was 0%. The pest or weed control at 150 g/ha [5] was 0%.
